The source made the active and inactive calls. Cut-off read from the data, not from the text of the source: actives have a measured EC50 and inactives only a lower limit.

From ChEMBL document CHEMBL1201862, “PubChem BioAssay data set” (2004) come the findings set out here.

Test [1] can be described thus: Luminescence Cell-Based Dose Response HTS to Identify Inhibitors of 5'UTR Stem-Loop Driven Prion Protein mRNA Translation in H4 Neuroglioblastoma Cells. [Related pubchem assays: 1827 (Project Summary), 1813 (Primary HTS)]. Type of test: functional.
A short description of test [2]: inhibitors of SNCA 5'UTR-driven reporter translation, confirmation, H4 neuroglioma cells, luminescence (AID 1988). Type of test: functional, cell-based.
A short description of test [3]: inhibitors of firefly luciferase expression or activity, dose response, H4 neuroglioma cells, luminescence (AID 1990). Type of test: functional, cell-based.
Test [4] relates to Streptococcus sp. 'group A'. In words: growth inhibition of control SK(-) GAS strain, dose response, counter-screen for streptokinase expression inhibitor project, luminescence, kanamycin, BacTiterGlo, confirmation (AID 1900). In kind it is functional, organism-based. On the technique in general: A counterscreen serves to expose hits that act by an unwanted route or on another target.

For a further test, the system named is Streptococcus. In words: Group A Streptococcus viability loss, dose response, counter-screen for streptokinase expression inhibitor project, luminescence, BacTiterGlo (AID 1915).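 Note: potency for reduction of bacterial viability or growth.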 Type of test: functional, organism-based.
The target in another test is T1, Streptokinase A (Streptococcus pyogenes serotype M1, UniProt P10520).
T1 sequence (P10520 whole entry): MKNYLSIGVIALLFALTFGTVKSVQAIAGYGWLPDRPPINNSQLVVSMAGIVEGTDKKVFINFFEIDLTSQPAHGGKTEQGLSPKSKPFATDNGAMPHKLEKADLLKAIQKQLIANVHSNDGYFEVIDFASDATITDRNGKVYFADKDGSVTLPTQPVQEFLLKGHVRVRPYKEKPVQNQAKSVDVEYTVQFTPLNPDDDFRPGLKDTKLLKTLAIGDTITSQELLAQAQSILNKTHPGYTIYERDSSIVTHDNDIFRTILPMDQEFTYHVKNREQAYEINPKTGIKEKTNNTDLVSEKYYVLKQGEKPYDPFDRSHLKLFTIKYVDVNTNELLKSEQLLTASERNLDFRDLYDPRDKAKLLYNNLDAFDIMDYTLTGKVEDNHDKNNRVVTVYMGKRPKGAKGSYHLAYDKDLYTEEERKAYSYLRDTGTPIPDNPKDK
Nature of the test: S. pyogenes streptokinase expression inhibitors, potency, dose response, plasminogen activation absorbance, OD405 (AID 1914).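 Note: secreted streptokinase activity via plasminogen activation per viability signal from cell pellet.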 Type of test: functional, Streptococcus pyogenes M1 GAS.

A short description of test [5]: inhibitors of intracellular T. cruzi replication, confirmation, NIH3T3 host cells, beta-gal luminescence (AID 2044).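 Note: intracellular parasites grown in NIH/3T3 mouse fibroblasts as host cells; luminescent beta-galactosidase reporter signal from transgenic T. cruzi replicating inside host cells; inhibitors lower the luminescence signal.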 In kind it is functional, cell-based.
Test [6] is described as follows: cytotoxicity toward NIH3T3 fibroblasts, dose response, counter-screen, cell-based, ATP luminescence, mouse fibroblasts (AID 2010).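 Note: cells exposed to compound for about 90 hours before reading.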 In kind it is functional.

For `Cc1c([N+](=O)[O-])c(N)nn1C`, the 50% effective concentration (EC50) in test [1], in test [2] and in test [3] was > 120 µM (not active) throughout.
Regarding `NC(=O)c1cc(C(=O)Cc2ccccc2)c[nH]1`, the results for the EC50 (in test [4]; with Streptococcus; at Streptokinase A) were 2.27 µM (active), > 150 µM (not active) and 107 µM (active), respectively.
Turning to `Cc1ccc(S(=O)(=O)NNC(=O)c2ccccc2-n2cccc2)cc1`, the EC50 in test [1], in test [2] and in test [3] was > 120 µM (not active) each time.
As to `Cc1ccccc1C(=O)Oc1cccc(Nc2ncnc3ccccc23)c1`, the EC50 in test [4] is 5.76 µM (active); in the test on Streptococcus, > 150 µM (not active); on Streptokinase A, 34.6 µM (active).
On the same counts, the results for `CCCCNC(=O)c1cn(CC(C)C)c(=O)c2c1c1ccccc1n2C` are 15.5 µM (active), > 150 µM (not active) and > 150 µM (not active).
On to `CC1CCN(S(=O)(=O)c2ccc3c(c2)N(CC(=O)N(C)Cc2ccco2)C(=O)CO3)CC1`, for which the EC50 in test [1] was > 120 µM (not active); in test [2] it was 21.2 µM (active); in test [3] it was > 120 µM (not active).
As to `COc1ccc(-c2cc(C(F)(F)F)nc(NCc3cccs3)n2)cc1`, the EC50 in test [4] was 3.73 µM (active); in test [5], 2.19 µM (active); in the test on Streptococcus, > 150 µM (not active); in test [6], > 60 µM (not active); at Streptokinase A, 13.8 µM (active).
For the molecule `COc1ccccc1N1CCN(C(=O)/C=C/c2c(Cl)nc3ccccn23)CC1`, the EC50 in test [4] was 1.25 µM (active); in the test with Streptococcus, 12.7 µM (active); at Streptokinase A, > 150 µM (not active).
For `O=Cc1cn(Cc2ccc(F)cc2Cl)c2ccccc12`, the results for the EC50 in test [1], in test [2] and in test [3] were 16.8 µM (active), 12.4 µM (active) and 16.2 µM (active), respectively.
On the same counts, the results for `CCOC(=O)c1cnc2c(OC)cccc2c1N1CC(C)CC(C)C1` (stereo unspecified) are > 120 µM (not active), 14.4 µM (active) and 13.9 µM (active).
With `Cc1csc(NC(=O)c2cc3c(s2)CCCCC3)n1`, the values for the EC50 in test [1] and in test [2] were 2.57 µM (active) and 3.58 µM (active), respectively.
For the molecule `COc1ccc(CN2CCCC(C(=O)c3ccc(Cl)cc3)C2)cc1Cn1cccn1` (stereo unspecified), the EC50 in test [1], in test [2] and in test [3] was > 120 µM (not active) throughout.
On to `COc1ccc(CNCC(O)(c2ccc(Cl)cc2)c2ccc(Cl)cc2)cc1`, for which the concentration giving a half-maximal response (EC50) in test [4] is 3.01 µM (active); with Streptococcus it was 17.9 µM (active); on Streptokinase A, 19.7 µM (active).
Turning to `O=C(NC1CC1)C1=C[C@@H](c2coc3ccccc3c2=O)C[C@@H](OCc2ccc(CO)cc2)O1`, the EC50 in test [1], in test [2] and in test [3] was > 120 µM (not active) each time.
With `COc1cc(C(=O)NC(=S)Nc2ccc(Cc3ccncc3)cc2)cc(OC)c1OC`, the EC50 in test [4] is 2.84 µM (active); in the test on Streptococcus, 25 µM (active); on Streptokinase A, > 150 µM (not active).

In general, EC50 refers to the concentration needed to bring the measured effect to its halfway point.
